Reference: ChEMBL document CHEMBL6074636, “Design and activity evaluation of new EGFR tyrosine kinase inhibitors containing cyclic polyamines” (Bioorg Med Chem Lett, 2024)
The source made the active and inactive calls. No cut-off for these calls is given here.

Assays:
[1] = tested on: PC-9; assay: cells; type: functional, cell-based; details: Homo sapiens, PC-9, 48 h
Description: Antiproliferative activity against human PC-9 cells assessed as inhibition of cell growth incubated for 48 hrs by CCK assay

[2] = tested on: PC-9; assay: cells; type: functional, cell-based; details: Homo sapiens, PC-9, 48 h; remark: listed apart in the source
Description: Antiproliferative activity against human PC-9 cells expressing EGFR del19/T790M/C797S triple mutant assessed as inhibition of cell growth incubated for 48 hrs by CCK assay

[3] = tested on: NCI-H1975; assay: cells; type: functional, cell-based; details: Homo sapiens, NCI-H1975, 48 h
Description: Antiproliferative activity against human NCI-H1975 cells assessed as inhibition of cell growth incubated for 48 hrs by CCK assay

[4] = tested on: A549; assay: cells; type: functional, cell-based; details: Homo sapiens, A549, 48 h
Description: Antiproliferative activity against human A549 cells expressing wild type EGFR assessed as inhibition of cell growth incubated for 48 hrs by CCK assay

[5] = molecular target: Epidermal growth factor receptor (Homo sapiens, UniProt P00533, C797S/L858R/T790M); assay: Inhibition of EGFR L858R/T790M/C797S triple mutant (unknown origin)
Epidermal growth factor receptor (Homo sapiens, UniProt P00533, C797S/L858R/T790M), sequence (P00533 25-1210 T790M/C797S/L858R limits assumed): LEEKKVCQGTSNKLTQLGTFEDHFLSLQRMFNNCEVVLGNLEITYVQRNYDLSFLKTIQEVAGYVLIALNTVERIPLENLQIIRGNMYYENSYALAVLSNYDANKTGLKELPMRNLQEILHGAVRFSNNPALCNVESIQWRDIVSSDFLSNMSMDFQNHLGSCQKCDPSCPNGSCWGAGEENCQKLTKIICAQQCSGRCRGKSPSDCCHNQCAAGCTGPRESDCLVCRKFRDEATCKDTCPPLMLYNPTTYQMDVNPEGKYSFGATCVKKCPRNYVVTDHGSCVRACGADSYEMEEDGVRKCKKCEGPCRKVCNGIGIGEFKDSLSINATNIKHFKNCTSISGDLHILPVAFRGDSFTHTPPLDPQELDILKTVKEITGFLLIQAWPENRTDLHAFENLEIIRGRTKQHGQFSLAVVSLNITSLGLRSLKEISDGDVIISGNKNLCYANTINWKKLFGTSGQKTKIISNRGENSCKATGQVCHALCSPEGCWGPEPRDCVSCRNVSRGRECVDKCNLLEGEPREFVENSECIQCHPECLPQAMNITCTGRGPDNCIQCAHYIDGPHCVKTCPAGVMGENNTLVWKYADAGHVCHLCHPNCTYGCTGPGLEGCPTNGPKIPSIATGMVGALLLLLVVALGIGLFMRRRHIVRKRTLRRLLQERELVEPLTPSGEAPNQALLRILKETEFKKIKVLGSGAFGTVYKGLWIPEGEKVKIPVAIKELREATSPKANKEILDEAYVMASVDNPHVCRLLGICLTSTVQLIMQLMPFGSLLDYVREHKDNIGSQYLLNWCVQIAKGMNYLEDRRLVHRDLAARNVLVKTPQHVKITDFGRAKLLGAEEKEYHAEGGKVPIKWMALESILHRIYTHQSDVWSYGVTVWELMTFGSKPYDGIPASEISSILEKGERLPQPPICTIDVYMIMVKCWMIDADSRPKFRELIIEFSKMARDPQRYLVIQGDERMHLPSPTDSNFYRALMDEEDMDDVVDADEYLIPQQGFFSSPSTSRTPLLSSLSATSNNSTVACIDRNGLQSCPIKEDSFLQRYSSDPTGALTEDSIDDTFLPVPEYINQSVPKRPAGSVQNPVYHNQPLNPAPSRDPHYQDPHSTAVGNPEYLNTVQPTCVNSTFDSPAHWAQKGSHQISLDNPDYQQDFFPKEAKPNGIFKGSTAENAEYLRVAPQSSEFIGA

[6] = molecular target: Epidermal growth factor receptor (Homo sapiens, UniProt P00533, EX19DEL); assay: Inhibition of EGFR del19 mutant (unknown origin)
Epidermal growth factor receptor (Homo sapiens, UniProt P00533, EX19DEL), sequence (P00533 whole entry, looked up, stated change not applied): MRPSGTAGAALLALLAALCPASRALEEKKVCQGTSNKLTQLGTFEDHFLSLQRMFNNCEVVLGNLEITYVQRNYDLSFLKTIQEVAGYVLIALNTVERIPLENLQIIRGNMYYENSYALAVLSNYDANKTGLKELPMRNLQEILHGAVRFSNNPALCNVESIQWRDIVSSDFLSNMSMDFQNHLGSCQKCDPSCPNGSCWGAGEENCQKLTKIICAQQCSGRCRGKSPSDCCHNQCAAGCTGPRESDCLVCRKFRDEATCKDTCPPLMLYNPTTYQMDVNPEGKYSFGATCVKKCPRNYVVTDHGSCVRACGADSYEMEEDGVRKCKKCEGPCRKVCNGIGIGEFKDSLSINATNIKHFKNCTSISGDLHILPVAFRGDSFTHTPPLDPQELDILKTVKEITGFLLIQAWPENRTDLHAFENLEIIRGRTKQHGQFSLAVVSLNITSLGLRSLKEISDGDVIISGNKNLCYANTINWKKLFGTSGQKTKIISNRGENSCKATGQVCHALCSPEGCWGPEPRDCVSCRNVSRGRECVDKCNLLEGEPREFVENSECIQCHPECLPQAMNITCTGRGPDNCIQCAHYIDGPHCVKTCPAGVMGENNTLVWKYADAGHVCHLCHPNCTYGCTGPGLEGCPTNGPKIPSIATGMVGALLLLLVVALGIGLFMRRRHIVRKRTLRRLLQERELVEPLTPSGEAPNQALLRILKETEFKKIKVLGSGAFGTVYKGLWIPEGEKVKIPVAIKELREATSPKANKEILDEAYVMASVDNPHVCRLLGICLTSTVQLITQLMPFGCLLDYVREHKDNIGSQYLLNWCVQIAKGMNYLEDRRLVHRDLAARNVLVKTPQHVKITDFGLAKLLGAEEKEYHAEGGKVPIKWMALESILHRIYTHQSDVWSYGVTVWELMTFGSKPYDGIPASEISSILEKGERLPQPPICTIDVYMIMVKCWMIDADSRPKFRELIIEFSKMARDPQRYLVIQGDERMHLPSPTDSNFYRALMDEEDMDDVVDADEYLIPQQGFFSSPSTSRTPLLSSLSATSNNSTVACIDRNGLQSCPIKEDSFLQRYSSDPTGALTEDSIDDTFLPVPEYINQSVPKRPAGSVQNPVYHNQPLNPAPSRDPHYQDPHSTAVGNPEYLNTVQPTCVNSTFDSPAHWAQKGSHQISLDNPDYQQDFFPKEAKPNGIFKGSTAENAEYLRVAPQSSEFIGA

[7] = Cytotoxicity against human BEAS-2B cells assessed as inhibition of cell growth incubated for 48 hrs by CCK-8 assay; type: toxicity, cell-based
[8] = tested on: PC-9; assay: Inhibition of colony formation in human PC-9 cells expressing EGFR del19/T790M/C797S triple mutant at 100 nM; type: functional, cell-based
[9] = Selectivity index, ratio of IC50 for cytotoxicity against human BEAS-2B cells assessed as inhibition of cell growth to IC50 for antiproliferative activity against human PC-9 cells expressing EGFR del19/T790M/C797S triple mutant assessed as inhibition of cell growth; type: toxicity, cell-based; details: read-out: Ratio IC50
[10] = tested on: PC-9; assay: Inhibition of cell migration in human PC-9 cells expressing EGFR del19/T790M/C797S triple mutant at 1 uM incubated for 48 hrs by transwell assay; type: functional, cell-based
[11] = tested on: PC-9; assay: Inhibition of colony formation in human PC-9 cells expressing EGFR del19/T790M/C797S triple mutant at 1 uM; type: functional, cell-based
[12] = tested on: PC-9; assay: Antiproliferative activity against human PC-9 cells expressing EGFR del19/T790M/C797S triple mutant assessed as reduction in cell proliferation at 100 to 500 nM incubated for 48 hrs Edu staining based analysis; type: functional; details: dose 100-500 nM

IC50 [1]	IC50 [2]	IC50 [3]	IC50 [4]	IC50 [5]	IC50 [6]	Compound	IC50 at 48 h [7]	inhibition [8]	selectivity ratio [9]	inhibition [10]	inhibition [11]	Activity [12]
2.7 µM	0.767 µM	3.44 µM	7.78 µM	0.251 µM	0.161 µM	O=C(O)CN1CCN(CC(=O)O)CC(=O)Nc2cc3c(Nc4ccc(Br)cc4F)ncnc3cc2NC(=O)C1						
1.66 µM	11 µM	4.54 µM	> 100 µM			O=C(O)CN1CCN(CC(=O)O)CC(=O)Nc2cc3c(Nc4ccc(Cl)cc4Cl)ncnc3cc2NC(=O)C1						
10.2 µM	1.52 µM	8.11 µM	> 100 µM	0.321 µM	0.378 µM	CCc1cccc(Nc2ncnc3cc4c(cc23)NC(=O)CN(CC(=O)O)CCN(CC(=O)O)CC(=O)N4)c1						
49.3 µM	3.43 µM	4.85 µM	3.32 µM			CCc1cc(Br)ccc1Nc1ncnc2cc3c(cc12)NC(=O)CN(CC(=O)O)CCN(CC(=O)O)CC(=O)N3						
31.6 µM	3.6 µM	4.41 µM	> 100 µM			O=C(O)CN1CCN(CC(=O)O)CC(=O)Nc2cc3c(Nc4cccc(Br)c4)ncnc3cc2NC(=O)C1						

The remaining lines, values behind:

Compound	IC50 [1]	IC50 [2]	IC50 [3]	IC50 [4]	IC50 [5]	IC50 [6]	IC50 at 48 h [7]	inhibition [8]	selectivity ratio [9]	inhibition [10]	inhibition [11]	Activity [12]
O=C(O)CN1CCN(CC(=O)O)CC(=O)Nc2cc3c(Nc4cccc(Cl)c4)ncnc3cc2NC(=O)C1	30.7 µM	84 µM	23.3 µM	2.26 µM								
C#Cc1cccc(Nc2ncnc3cc4c(cc23)OCCOCCOCCO4)c1 [ICOTINIB]	1.53 µM	1.26 µM	5.75 µM	56 µM								
O=C(O)CN1CCN(CC(=O)O)CC(=O)Nc2cc3c(Nc4ccc(F)c(Cl)c4)ncnc3cc2NC(=O)C1	7.87 µM	13.2 µM	18.9 µM	> 100 µM								
COc1cccc(Nc2ncnc3cc4c(cc23)NC(=O)CN(CC(=O)O)CCN(CC(=O)O)CC(=O)N4)c1	12.3 µM	6.7 µM	3.04 µM	35.1 µM								
C=CC(=O)Nc1cc(Nc2nccc(-c3cn(C)c4ccccc34)n2)c(OC)cc1N(C)CCN(C)C [OSIMERTINIB]	0.08 µM	0.912 µM	[…]	0.637 µM			20.1 µM					
O=C(O)CN1CCN(CC(=O)O)CC(=O)Nc2cc3c(Nc4cccc(F)c4)ncnc3cc2NC(=O)C1	1.13 µM	0.496 µM	1.41 µM	0.946 µM	0.161 µM	0.136 µM	17.2 µM	Active	34.7	Active	Active	Active
O=C1CNCCNCC(=O)Nc2cc3c(Nc4ccc(F)c(Cl)c4)ncnc3cc2N1	12.5 µM	4.61 µM	4.43 µM	1.38 µM	> 1000 µM	> 1000 µM						
O=C(O)CN1CCN(CC(=O)O)CC(=O)Nc2cc3c(Nc4ccc(OCc5cccc(F)c5)c(Cl)c4)ncnc3cc2NC(=O)C1	6.57 µM	1.09 µM	2.49 µM	4.02 µM	0.22 µM	0.18 µM						
O=C(O)CN1CCN(CC(=O)O)CC(=O)Nc2cc3c(Nc4ccccc4)ncnc3cc2NC(=O)C1	32.9 µM	14.2 µM	3.91 µM	3.91 µM								
